# Laboratory results: publication PMC3527388, “Transport Mechanisms and Their Pathology-Induced Regulation Govern Tyrosine Kinase Inhibitor Delivery in Rheumatoid Arthritis” (PLoS ONE, 2012)
# Target: T1, novel organic cation transporter 1 (hOCTN1) (Homo sapiens, UniProt Q9H015)
# T1 construct: gene SLC22A4
# T1 sequence (Q9H015 1-551): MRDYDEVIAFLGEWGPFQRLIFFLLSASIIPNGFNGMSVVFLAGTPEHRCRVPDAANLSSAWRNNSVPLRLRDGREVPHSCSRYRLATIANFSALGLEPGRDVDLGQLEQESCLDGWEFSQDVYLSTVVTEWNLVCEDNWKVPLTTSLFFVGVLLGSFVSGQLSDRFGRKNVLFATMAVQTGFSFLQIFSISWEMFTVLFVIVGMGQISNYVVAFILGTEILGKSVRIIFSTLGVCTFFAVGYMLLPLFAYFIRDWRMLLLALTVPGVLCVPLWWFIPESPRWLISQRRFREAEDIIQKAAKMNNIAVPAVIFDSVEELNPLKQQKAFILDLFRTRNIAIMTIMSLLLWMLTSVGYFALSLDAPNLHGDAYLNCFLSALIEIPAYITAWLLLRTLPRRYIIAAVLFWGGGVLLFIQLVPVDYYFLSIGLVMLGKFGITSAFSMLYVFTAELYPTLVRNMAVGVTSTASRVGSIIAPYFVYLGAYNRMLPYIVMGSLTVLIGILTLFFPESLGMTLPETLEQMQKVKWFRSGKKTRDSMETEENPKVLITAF
# Assay: ASP+ uptake in HEK293 cells with doxycycline-induced versus uninduced hOCTN1
# Format: cell-based
# Description: ASP+ uptake in HEK293 cells with doxycycline-induced versus uninduced hOCTN1 on novel organic cation transporter 1 (hOCTN1) | ASP^+ is a substrate for hOCTN1. Comparison of ASP^+ uptake by HEK293 cells stably transfected
smiles,measurement,value
"CN(C)c1ccc(C=Cc2cc[n+](C)cc2)cc1 [ASP+, 4-(4-(Dimethylamino)Styryl)-N-methylpyridinium]",ASP+ uptake in HEK293 cells with doxycycline-induced versus uninduced hOCTN1,ASP^+ is a substrate for hOCTN1. Comparison of ASP^+ uptake by HEK293 cells stably transfected
